# Source: patent US20210324359A1, “USE OF GRAM-NEGATIVE LYSIN-ANTIMICROBIAL PEPTIDE (AMP) POLYPEPTIDE CONSTRUCTS IN TREATING ENDOCARDITIS” (priority 2020, published 2021)
# B1: GN81: dispersin B, an enzyme that degrades biofilm (SEQ ID NO: 226); control (protein, listed as Actinobacillus pleuropneumoniae)
# chain: MDLPKKESGLTLDIARRFYTVDTIKQFIDTIHQAGGTFLHLHFSDHENYALESSYLEQREENATEKNGTYFNPKTNKPFLTYKQLNEIIYYAKERNIEIVPEVDSPNHMTAIFDLLTLKHGKEYVKGLKSPYIAEEIDINNPEAVEVIKTLIGEVIYIFGHSSRHFHIGGDEFSYAVENNHEFIRYVNTLNDFINSKGLITRVWNDGLIKNNLSELNKNIEITYWSYDGDAQAKEDIQYRREIRADLPELLANGFKVLNYNSYYLYFVPKSGSNIHNDGKYAAEDVLNNWTLGKWDGKNSSNHVQNTQNIIGSSLSIWGERSSALNEQTIQQASKNLLKAVIQKTNDPKSH
# B2: GN40: lysin obtained from Pseudomonas putida strain PA14H7 (SEQ ID NO: 210) (protein, listed as Micavibrio aeruginosavorus)
# chain: MFRPSYILPGVAAVMLLASTAAHAAGYEWKRVDYQYLQSVSEKERGMLRIYKDYEEREPCQNYRELPPEVKYVDCKLYHRVAIPDPPPPPAPPPAPEPPKVVSSYEIFFPLDSTALDLQANAMVDKAAADIALYQPSTVIVAGYTDTSGAADYNDQLSANRAMAVSAALSQRGIPNTAMDLEAHGQNDLKVPTADDVHEPQNRRTVIHFMK
# What was measured:
# [1] = test system: carbapenem-resistant P. aeruginosa strains; experiment: Resensitization of carbapenem-resistant strains, combinations with imipenem or meropenem (Tables 18-22); format: cell-based, Pseudomonas aeruginosa
# Experimental: Such resensitization may be determined by combining the present lysins or lysin-AMP polypeptide constructs with an antibiotic in a checkerboard assay as described herein. Antibiotic-resistant bacteria, such as carbapenem-resistant P. aeruginosa, are added to the lysin or lysin-AMP polypeptide construct combination. […] See Clinical and Laboratory Standards Institute (CLSI), CLSI. […] M100 Performance Standards for Antimicrobial Susceptibility Testing; 29th Edition. Clinical and Laboratory Standards Institute, Wayne, Pa., which is herein incorporated by reference in its entirety.
# Up to seven carbapenem-resistant isolates were assessed. […] See Clinical and Laboratory Standards Institute (CLSI), CLSI. […] M100 Performance Standards for Antimicrobial Susceptibility Testing; 29th Edition. Clinical and Laboratory Standards Institute, Wayne, Pa.
# [2] = test system: P. aeruginosa strain WC-453; experiment: Time-kill assay in HEPES or CAA with 25% human serum (Tables 7, 8); format: cell-based, Pseudomonas aeruginosa; conditions: lysin 10 μg/ml, WC-453; for HEPES (Log10 CFU/mL), 1 hr / HEPES (Log10 CFU/mL), 3 hr: 25 mM HEPES pH 7.4; for CAA/HuS (Log10 CFU/mL), 1 hr / CAA/HuS (Log10 CFU/mL), 3 hr: CAA + 25% human serum
# Experimental: Exponential phase bacteria were then pelleted and resuspended in 1/5 culture volume of 25 mM HEPES, pH 7.4 before a final adjustment to an optical density corresponding to a McFarland value of 0.5. […] All treatments were incubated at 37° C. with aeration. At time points before the addition of lysin (or buffer control) and at 1 hour and 3 hours intervals thereafter, culture samples were removed for quantitative plating on CAA agar plates.
# [3] = in combination with GN121, isolate PA19
# [4] = in combination with GN121, isolate PA20
# [5] = in combination with GN121, isolate PA21
# [6] = in combination with GN121, isolate PA22
# [7] = in combination with GN121, isolate PA23
# [8] = in combination with GN121, isolate PA24
# [9] = in combination with GN123, isolate PA19
# [10] = in combination with GN123, isolate PA20
# [11] = in combination with GN123, isolate PA21
# [12] = in combination with GN123, isolate PA22
# [13] = in combination with GN123, isolate PA23
# [14] = in combination with GN123, isolate PA24
# [15] = in combination with GN123, isolate WC-452
molecule,measurement,setting,value
"C[C@@H](O)[C@H]1C(=O)N2C(C(=O)O)=C(SCCN=CN)C[C@H]12 [Imipenem, imipenem, reference compound]","antibiotic MIC, Combination",[1]; [3],1 µg/mL
same,"carbapenem susceptibility class, Combination",[1]; [3],(S) ((S) = sensitive)
same,"antibiotic MIC, Combination",[1]; [4],0.5 µg/mL
same,"carbapenem susceptibility class, Combination",[1]; [4],(S) ((S) = sensitive)
same,"antibiotic MIC, Combination",[1]; [5],1 µg/mL
same,"carbapenem susceptibility class, Combination",[1]; [5],(S) ((S) = sensitive)
same,"antibiotic MIC, Combination",[1]; [6],2 µg/mL
same,"carbapenem susceptibility class, Combination",[1]; [6],(S) ((S) = sensitive)
same,"antibiotic MIC, Combination",[1]; [7],0.125 µg/mL
same,"carbapenem susceptibility class, Combination",[1]; [7],(S) ((S) = sensitive)
same,"antibiotic MIC, Combination",[1]; [8],1 µg/mL
same,"carbapenem susceptibility class, Combination",[1]; [8],(S) ((S) = sensitive)
same,"antibiotic MIC, Combination",[1]; [9],0.5 µg/mL
same,"carbapenem susceptibility class, Combination",[1]; [9],(S) ((S) = sensitive)
same,"antibiotic MIC, Combination",[1]; [10],1 µg/mL
same,"carbapenem susceptibility class, Combination",[1]; [10],(S) ((S) = sensitive)
same,"antibiotic MIC, Combination",[1]; [11],0.5 µg/mL
same,"carbapenem susceptibility class, Combination",[1]; [11],(S) ((S) = sensitive)
same,"antibiotic MIC, Combination",[1]; [12],2 µg/mL
same,"carbapenem susceptibility class, Combination",[1]; [12],(S) ((S) = sensitive)
same,"antibiotic MIC, Combination",[1]; [13],0.25 µg/mL
same,"carbapenem susceptibility class, Combination",[1]; [13],(S) ((S) = sensitive)
same,"antibiotic MIC, Combination",[1]; [14],2 µg/mL
same,"carbapenem susceptibility class, Combination",[1]; [14],(S) ((S) = sensitive)
same,"antibiotic MIC, Combination",[1]; [15],1 µg/mL
same,"carbapenem susceptibility class, Combination",[1]; [15],(S) ((S) = sensitive)
same,"carbapenem susceptibility class, Combination","[1]; in combination with GN351, vs. WC-452",(S) ((S) = sensitive)
same,"carbapenem susceptibility class, Combination","[1]; in combination with GN370, vs. WC-452",(S) ((S) = sensitive)
same,"carbapenem susceptibility class, Combination","[1]; in combination with GN428, vs. WC-452",(S) ((S) = sensitive)
same,"carbapenem susceptibility class, antibiotic Alone",[1]; isolate PA19,R ((R) = resistant)
same,"carbapenem susceptibility class, antibiotic Alone",[1]; isolate PA20,R ((R) = resistant)
same,"carbapenem susceptibility class, antibiotic Alone",[1]; isolate PA21,R ((R) = resistant)
same,"carbapenem susceptibility class, antibiotic Alone",[1]; isolate PA22,R ((R) = resistant)
same,"carbapenem susceptibility class, antibiotic Alone",[1]; isolate PA23,R ((R) = resistant)
same,"carbapenem susceptibility class, antibiotic Alone",[1]; isolate PA24,R ((R) = resistant)
same,"carbapenem susceptibility class, antibiotic Alone",[1]; isolate WC-452,R ((R) = resistant)
B1,"HEPES (Log10 CFU/mL), 1 hr",[2],7.4 Log10 CFU/mL
same,"HEPES (Log10 CFU/mL), 3 hr",[2],6.5 Log10 CFU/mL
same,"CAA/HuS (Log10 CFU/mL), 1 hr",[2],6.7 Log10 CFU/mL
same,"CAA/HuS (Log10 CFU/mL), 3 hr",[2],7.0 Log10 CFU/mL
B2,"HEPES (Log10 CFU/mL), 1 hr",[2],7.0 Log10 CFU/mL
same,"HEPES (Log10 CFU/mL), 3 hr",[2],5.7 Log10 CFU/mL
same,"CAA/HuS (Log10 CFU/mL), 1 hr",[2],6.6 Log10 CFU/mL
same,"CAA/HuS (Log10 CFU/mL), 3 hr",[2],6.7 Log10 CFU/mL
